Data on 6 molecules can be found in patent US20040197852A1, “Method of preparing peptide fragment having cell death inhibitory activity” (priority 2001, published 2004).

B1: Selenoprotein P untreated: full-length selenoprotein P purified from human plasma in Example 1, M.W. around 67,000 in SDS-PAGE (protein, UniProt P49908 20-381, looked up)
Selenoprotein P: ESQDQSSLCKQPPAWSIRDQDPMLNSNGSVTVVALLQASUYLCILQASKLEDLRVKLKKEGYSNISYIVVNHQGISSRLKYTHLKNKVSEHIPVYQQEENQTDVWTLLNGSKDDFLIYDRCGRLVYHLGLPFSFLTFPYVEEAIKIAYCEKKCGNCSLTTLKDEDFCKRVSLATVDKTVETPSPHYHHEHHHNHGHQHLGSSELSENQQPGAPNAPTHPAPPGLHHHHKHKGQHRQGHPENRDMPASEDLQDLQKKLCRKRCINQLLCKLPTDSELAPRSUCCHCRHLIFEKTGSAITUQCKENLPSLCSUQGLRAEENITESCQURLPPAAUQISQQLIPTEASASURUKNQAKKUEUPSN

For one experiment, the system named is Dami cells. The experiment is described as follows: Cell death-inhibitory activity in Dami cells in serum-free medium with BSA and linoleic acid. The format is cell-based, human. The following applies: each 1 ppm selenium added to the system; Dami cells. The text has this: For screening a cell death-inhibitory activity for isolation and identification of the C-terminal fragment of selenoprotein P as described above, a culture system of Dami cells, human megakaryoblasts, with serum free culture medium supplemented with albumin was suitably used. […] With culture medium containing 0.01 to 0.5% human serum albumin, the cells grow normally but on Day 4 and henceforth all the cells are put to death abruptly. A cell death-inhibitory activity in a sample may be measured by applying the sample to this culture system.
The cells were cultured for three days and recovered for assay. The recovered cells were washed twice with SA/0.05% skimmed BSA (manufactured by SIGMA) containing 4 μM linoleic acid and suspended in the same medium at 3×10^4 cells/mL. The cell suspension was then added to a 96-well plate in each 200 μl for wells for sample addition or in each 100 μl for wells for serial dilution. To the wells for sample addition was added 2 μl sample and, after stirring, a serial dilution was made with the wells containing 100 μl cell suspension. The plate was incubated at 37° C. in CO2 incubator for 4 to 5 days followed by assessment. In this system, Dami cells will die in the wells added with samples having no activity but will survive in the wells added with samples having the activity on Day 4 and thenceforth. Thus, assessment was made with to what folds of dilution of tested samples the living cells could survive. Therefore, the higher the value in the following table, the higher a cell death-inhibitory activity.
After washing the column with about 8 mL PBS, elution was made with 0.1 M glycine, pH 2.8. The eluate fractions were neutralized with about 1/10 amount of 1 M Tris-HCl. The fraction that passed through chromatographic column and the washing fractions were pooled, concentrated with SpeedVac, and dialyzed against PBS.
For the molecule B1, the “Cell death-inhibitory activity (Folds of dilution)” value is given as 5000 Folds of dilution.

The experiment is the same for the next values; noted with them: selenoprotein P digested with 1/10 weight of enzyme, 37° C., 24 hours; 2 μl sample serially diluted; Dami cell survival at 4 to 5 days.
On to Activated protein C, for which the “Cell death-inhibitory activity (Folds of dilution)” value is recorded as 800 Folds of dilution.

On to Elastase, for which the “Cell death-inhibitory activity (Folds of dilution)” value is reported as 600 Folds of dilution.

Plasmin: the “Cell death-inhibitory activity (Folds of dilution)” value is 600 Folds of dilution.

For the molecule Thrombin, the “Cell death-inhibitory activity (Folds of dilution)” value was 600 Folds of dilution. Same read-out and setting: as for Trypsin, the figure is 600 Folds of dilution.

Take B1: the “Cell death-inhibitory activity (Folds of dilution)” value was 400 Folds of dilution.
